Assay results reported in patent publication US9340575B2, “Agonists and antagonists of the urotensinergic system” (INSTITUT NATIONAL DE LA RECHERCHE SCIENTIFIQUE, priority 2011, dated 2016).
Several values for one entry are separate records, joined by “and”; a condition that tells them apart may be missing. Equal entries are not always repeated. Entries after “also recorded” stand apart in the source; their conditions may differ.

Tests used:
rat thoracic aorta rings [1] = assay type: cell-based; details: percentage of KCl (40 mM) contraction; at 10^−5.5M
Description: Binding and functional experiments were performed at least in triplicate and data, expressed as mean±S.E.M, were analyzed using the Prism software (Graph Pad Software, San Diego, Calif.). In all experiments, n represents the total number of animals studied or individual assays performed. The EC50, pEC50, pIC50 values as well as the Emax value were determined from the concentration-response curves using a sigmoidal dose-response fit with variable slope. […] The slope is calculated from the double reciprocal plot of equiactive concentrations of agonist in the presence and absence of antagonist.

anaesthetized rats = test: Hemodynamic assessment (arterial blood pressure) in anaesthetized rats; assay type: in vivo, rat; details: for Intrinsic effect on blood pressure: anaesthetized rats
Description: Male Sprague-Dawley rats, weighing 350-400 g, were anaesthetized by isoflurane inhalation delivered in 100% oxygen (1 l/min) from an Ohmeda Tec 4 anaesthetic vaporizer (Somatechnology, Inc., Bloomfield, Conn., USA). Anaesthesia was maintained by mask inhalation of isoflurane vaporized at concentrations of up to 3% in the induction phase, at 1.5% during acute surgical procedures and at 0.8-1.0% during experimental observations. […]. […] A period of stabilisation of 30 min was observed and the following experimental protocols were then performed and arterial blood pressure was evaluated. During isoflurane inhalation, no breathing complications or changes in blood pressure were observed. […].
In a preliminary study, individual rats received a single i.v. injection of hUII ranging from 1 to 30 nmol/kg. A dose-response curve, reflecting the effect of hUII on the change in blood pressure, was then determined.
In this set of experiments, five groups of rats were used. […] […]. Hemodynamic changes were continuously captured by the pressure probe over a period of 1 h. The maximum rise and the maximum drop in blood pressure was determined and analyzed using the PowerLab software (ADInstruments, Colorado Springs, Colo., USA).
In the control group, the rats received two doses of hUII (10 nmol/kg) with a 30 min interval between the first and second injection.

rat thoracic aorta rings [2] = test: Antagonism of UII- or URP-induced contraction of rat aortic ring; assay type: cell-based
Description: Male rats (Sprague-Dawley, 250-300 g) were killed by CO2 asphyxiation. The thoracic aorta was then cleared of surrounding tissues and excised from aortic arch to the diaphragm. From each vessel, conjunctive tissues were removed and the clean vessel was cut into 4 mm rings. The endothelium was removed by gently rubbing the vessel's intimal surface. All preparations were placed in 5 ml organ baths filled with oxygenated normal Krebs-Henselheit solution. Contractile responses to 40 mM KCl were used as control at the beginning and at the end of each experiment. Agonistic activity was measured by increasing the concentration of the peptide in the organ chamber (3×10^−11-3×10^−6 M). For antagonist behaviour, thoracic aortic rings were first exposed to URP derivative over a period of 15 min, and then cumulative concentration-response curves to hUII, URP or ET-1 (10^−10-3×10^−6 M) were constructed. The amplitude of the contraction induced by each concentration of peptide was expressed as a percentage of the KCl-induced contraction. Finally, the ability of the antagonist to reverse the hUII-induced contraction was also evaluated. Vessels were pre-contracted with 4 nM hUII (pre-determined EC80) and after the maximum contraction was attained, contractile tone was reversed by adding increasing log unit concentrations of URP derivative. […] Binding and functional experiments were performed at least in triplicate and data, expressed as mean±S.E.M, were analyzed using the Prism software (Graph Pad Software, San Diego, Calif.). In all experiments, n represents the total number of animals studied or individual assays performed. The EC50, pEC50, pIC50 values as well as the Emax value were determined from the concentration-response curves using a sigmoidal dose-response fit with variable slope. Non-competitive antagonist affinities (pKb) were determined using the method of Gaddum where equiactive concentrations of agonist, in the absence or presence of URP derivative, were compared in a linear regression. The resulting slope was used to calculate the equilibrium constant Kb using the following equation: Kb=[B]/(slope−1); where [B] is the antagonist concentration. The slope is calculated from the double reciprocal plot of equiactive concentrations of agonist in the presence and absence of antagonist.

rat isolated aorta = test: Reversal of hUII-induced contractile tone in rat isolated aorta; assay type: cell-based; details: tone established with 4 nM hUII (EC80)
Description: (§1) Male rats (Sprague-Dawley, 250-300 g) were killed by CO2 asphyxiation. The thoracic aorta was then cleared of surrounding tissues and excised from aortic arch to the diaphragm. From each vessel, conjunctive tissues were removed and the clean vessel was cut into 4 mm rings. The endothelium was removed by gently rubbing the vessel's intimal surface. All preparations were placed in 5 ml organ baths filled with oxygenated normal Krebs-Henselheit solution. Contractile responses to 40 mM KCl were used as control at the beginning and at the end of each experiment. Agonistic activity was measured by increasing the concentration of the peptide in the organ chamber (3×10^−11-3×10^−6 M). For antagonist behaviour, thoracic aortic rings were first exposed to URP derivative over a period of 15 min, and then cumulative concentration-response curves to hUII, URP or ET-1 (10^−10-3×10^−6 M) were constructed. The amplitude of the contraction induced by each concentration of peptide was expressed as a percentage of the KCl-induced contraction. Finally, the ability of the antagonist to reverse the hUII-induced contraction was also evaluated. Vessels were pre-contracted with 4 nM hUII (pre-determined EC80) and after the maximum contraction was attained, contractile tone was reversed by adding increasing log unit concentrations of URP derivative.

rat thoracic aorta rings [3] = test: Effect on ET-1-induced contraction of rat aortic ring; assay type: cell-based; details: [Bip^4]URP 10^−6M
Description: as §1

[4] = 1000 nmol/kg bolus, 30 min before hUII 10 nmol/kg

## CC(C)[C@H](NC(=O)[C@@H]1CSSC[C@H](NC(=O)[C@H](C)N)C(=O)N[C@@H](Cc2ccccc2)C(=O)N[C@@H](Cc2ccc(-c3ccccc3)cc2)C(=O)N[C@@H](CCCCN)C(=O)N[C@@H](Cc2ccc(O)cc2)C(=O)N1)C(=O)O [[Bip^4]URP, H-Ala-Cys-Phe-Bip-Lys-Tyr-Cys-Val-OH]
Rat thoracic aorta rings [1]
  Aortic Ring contraction Emax (%), maximum efficacy at 10^−5.5M: 8.7%
Anaesthetized rats; 0.1 μmol/kg
  Effect on hUII hemodynamic profile: no effect
Anaesthetized rats; 100 nmol/kg (0.1 μmol/kg) i.v.
  Intrinsic effect on blood pressure: No effect
Anaesthetized rats; 100 nmol/kg (0.1 μmol/kg) i.v., listed as urocontrin
  Intrinsic effect on blood pressure: no detectable effect
Anaesthetized rats; 1000 nmol/kg (1 μmol/kg) i.v.
  Intrinsic effect on blood pressure: hypotensive effect comparable with that of hUII
Anaesthetized rats; 1000 nmol/kg (1 μmol/kg) i.v., listed as urocontrin
  Intrinsic effect on blood pressure: hypotension comparable with that of hUII
Anaesthetized rats; [4]
  Effect on hUII hypotensive action: significantly reduced
  Effect on hUII pressor effect: keeping intact
Anaesthetized rats; 1000 nmol/kg bolus, 30 min before hUII 10 nmol/kg, listed as urocontrin
  Effect on hUII pressor effect: preserving
Anaesthetized rats; 1000 nmol/kg, URP 10 nmol/kg
  Effect on biphasic response induced by URP: no effect
Anaesthetized rats; [Bip^4]URP 1000 nmol/kg 30 min before two hUII doses (10 nmol/kg, 30 min interval)
  Response to a second hUII injection after pre-treatment: complete absence of a response
Rat thoracic aorta rings [2]
  Effect on URP-induced contraction (in words): but not URP
  Effect on hUII-induced contraction (in words): suppressed the maximum contractile response to hUII in a concentration-dependent manner
Rat thoracic aorta rings [2]; 1 μM [Bip^4]URP, method of Gaddum
  pKb (non-competitive antagonism of hUII): 7.15
Rat thoracic aorta rings [2]; absence and presence of 1 μM [Bip^4]URP
  Slope of double reciprocal plot of equiactive hUII concentrations (method of Gaddum): 15.00±0.62 and 15.0±0.6
Rat isolated aorta
  Suppression of contractile tone: 92%
  pIC50 for reversal of contractile tone: 7.72±0.15
Rat thoracic aorta rings [3]
  Effect on ET-1-induced contraction (in words): not able to alter the concentration-response curves; also recorded: did not inhibit or potentiate
